Experimental data as given in ChEMBL document CHEMBL1124213, “Structure-activity relationships among benextramine-related tetraamine disulfides. Chain length effect on alpha-adrenoreceptor blocking activity” (J Med Chem, 1988).

Legend:
[1] = Inhibition of ADP induced human blood platelet aggregation; format: functional
[2] = Inhibition of epinephrine induced human blood platelet aggregation; format: functional
Rattus norvegicus [3] = organism: Rattus norvegicus; assay: Alpha-1-adrenoceptor blocking activity by antagonism of (-)-norepinephrine induced contractions of epididymal portion of rat vas deferens; format: functional
[4] = target: Adrenergic receptor alpha (Rattus norvegicus) (UniProt P15823+P23944+P43140+P22086+P19328+P22909); assay: Ratio of IC50 towards alpha1 to alpha-2 receptors of rat vas deferens; format: protein assay
[5] = target: T1, Adrenergic receptor alpha-2 (Rattus norvegicus, UniProt P22086+P19328+P22909); assay: Alpha-2 adrenergic receptor blocking activity by antagonism of clonidine induced depression of twitch response of field stimulated prostatic portion of rat vas deferens; format: functional, tissue-based
T1 sequence (P22086 whole entry): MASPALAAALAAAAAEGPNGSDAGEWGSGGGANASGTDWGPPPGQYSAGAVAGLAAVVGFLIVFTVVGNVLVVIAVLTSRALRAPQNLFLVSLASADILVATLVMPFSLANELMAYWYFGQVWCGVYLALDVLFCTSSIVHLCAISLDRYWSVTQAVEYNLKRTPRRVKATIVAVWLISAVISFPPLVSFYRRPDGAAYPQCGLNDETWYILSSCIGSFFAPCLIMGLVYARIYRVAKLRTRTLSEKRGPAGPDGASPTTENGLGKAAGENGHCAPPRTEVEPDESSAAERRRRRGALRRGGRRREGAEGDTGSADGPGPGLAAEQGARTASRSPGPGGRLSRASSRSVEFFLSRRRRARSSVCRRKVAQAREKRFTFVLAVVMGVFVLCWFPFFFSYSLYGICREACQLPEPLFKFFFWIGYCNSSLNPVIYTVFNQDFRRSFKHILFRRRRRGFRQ
T1 sequence (P19328 whole entry): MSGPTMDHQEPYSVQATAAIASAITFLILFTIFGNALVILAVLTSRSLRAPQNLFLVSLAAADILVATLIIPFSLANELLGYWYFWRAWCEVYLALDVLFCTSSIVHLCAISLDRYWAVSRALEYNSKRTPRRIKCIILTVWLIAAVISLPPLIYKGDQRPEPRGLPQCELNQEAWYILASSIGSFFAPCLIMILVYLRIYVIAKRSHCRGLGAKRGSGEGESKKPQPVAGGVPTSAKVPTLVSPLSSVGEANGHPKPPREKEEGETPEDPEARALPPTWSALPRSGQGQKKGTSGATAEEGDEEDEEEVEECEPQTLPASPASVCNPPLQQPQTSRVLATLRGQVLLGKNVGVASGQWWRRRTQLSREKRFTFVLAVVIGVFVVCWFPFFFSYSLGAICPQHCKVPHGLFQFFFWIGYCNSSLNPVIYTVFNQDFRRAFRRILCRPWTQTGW
T1 sequence (P22909 whole entry): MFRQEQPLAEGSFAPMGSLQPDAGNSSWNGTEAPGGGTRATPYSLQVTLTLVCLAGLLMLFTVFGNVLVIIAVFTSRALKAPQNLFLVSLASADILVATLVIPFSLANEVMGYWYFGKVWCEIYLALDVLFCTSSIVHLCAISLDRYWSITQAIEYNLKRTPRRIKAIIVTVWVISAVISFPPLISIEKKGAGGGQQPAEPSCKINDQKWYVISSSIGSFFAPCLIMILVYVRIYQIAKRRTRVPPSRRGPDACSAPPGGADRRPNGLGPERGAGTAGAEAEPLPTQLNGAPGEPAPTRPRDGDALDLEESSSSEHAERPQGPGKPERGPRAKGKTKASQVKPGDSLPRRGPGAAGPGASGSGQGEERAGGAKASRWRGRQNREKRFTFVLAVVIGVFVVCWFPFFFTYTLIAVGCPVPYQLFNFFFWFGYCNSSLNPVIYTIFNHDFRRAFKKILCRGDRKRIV

Rattus norvegicus [6] = organism: Rattus norvegicus; assay: Alpha-1-adrenoceptor blocking activity by antagonism of (-)-norepinephrine induced contractions of epididymal portion of rat vas deferens; Inactive up to a concentration of 20 uM; format: functional

SMILES	IC50 [1]	IC50 [2]	IC50 (Rattus norvegicus [3])	Selectivity [4]	IC50 [5]	IC50 (Rattus norvegicus [6])
COc1ccccc1CNCCCCCCCCCCCNCCSSCCNCCCCCCCCCCCNCc1ccccc1OC	2.1 µM	1.7 µM	51.3 µM	< 2.57	–	–
COc1ccccc1CNCCCCCCCCNCCSSCCNCCCCCCCCNCc1ccccc1OC	22.7 µM	5.4 µM	98.5 µM	80.7	1.22 µM	–
COc1ccccc1CNCCCCCCCCCCCCNCCSSCCNCCCCCCCCCCCCNCc1ccccc1OC	2.1 µM	1.7 µM	8.23 µM	< 0.41	–	–
COc1ccccc1CNCCCCCCCCCNCCSSCCNCCCCCCCCCNCc1ccccc1OC	6 µM	2.3 µM	68 µM	< 3.4	–	–
COc1ccccc1CNCCCCCCCNCCSSCCNCCCCCCCNCc1ccccc1OC	41.3 µM	20.6 µM	55.2 µM	53.1	1.04 µM	–
COc1ccccc1CNCCC(=O)NCCCCCCCCNCCSSCCNCCCCCCCCNC(=O)CCNCc1ccccc1OC	–	–	–	–	–	Not Active
COc1ccccc1CNCCCCCCNCCCCCCNCCSSCCNCCCCCCNCCCCCCNCc1ccccc1OC.Cl.O	–	–	–	–	–	Not Active
COc1ccccc1CNCCCCCCCCCCCCN(C)CCSSCCN(C)CCCCCCCCCCCCNCc1ccccc1OC	–	–	46.9 µM	< 2.35	–	–
COc1ccccc1CNCCCCCC(=O)NCCCCCCNCCSSCCNCCCCCCNC(=O)CCCCCNCc1ccccc1OC	–	–	–	–	–	Not Active
Nc1ncnc2c1ncn2[C@@H]1O[C@H](CO)[C@@H](O)[C@H]1O [ADENOSINE]	2.5 µM	1.8 µM	–	–	–	–
COc1ccccc1CNCCCCCCCCCCNCCSSCCNCCCCCCCCCCNCc1ccccc1OC	2.8 µM	2.2 µM	62.8 µM	< 3.14	–	–
COc1ccccc1CNCCCCCCNCCSSCCNCCCCCCNCc1ccccc1OC [BENEXTRAMINE]	97 µM	31.3 µM	7.55 µM	9.2	0.82 µM	–
COc1ccccc1CNCCCCCNCCSSCCNCCCCCNCc1ccccc1OC	87 µM	46 µM	55.8 µM	2.16	25.8 µM	–
C1=CC(CNCCCCCCCCCCCCNCCSSCCNCCCCCCCCCCCCNCC2C=CC=N2)N=C1 (stereo unspecified)	–	–	7.3 µM	< 0.37	–	–
COc1ccccc1CNCCCNCCCCCCCCNCCSSCCNCCCCCCCCNCCCNCc1ccccc1OC.Cl.O	–	–	–	–	–	Not Active
